Assay results as given in PubChem BioAssay AID1963834 (Molecular Pharmacology Branch, DTP, NCI, 2024).

System: 873145-292-R-J1-PDC complex spheroid viability
Assay: Anticancer human tumor 873145-292-R-J1-PDC patient-derived renal clear cell carcinoma cell line growth inhibition [POLQ]
Conditions: for IC50: curve of first compound; for viability, T/C: stronger effect = lower value
Method: Multicellular complex tumor spheroid response to Polymerase (POL) inhibitors (novobiocin, ART-558, RP6685) in combination with a variety of drugs and investigational agents in selected tumor cell lines
The POL inhibitors (novobiocin, ART-558, and RP6685) were evaluated both individually and in combination with standard of care and investigational anticancer small molecules within a complex spheroid model of solid tumors. . Complex spheroids include a stromal component modeled by human endothelial cells (HUVEC) and fibroblasts modeled by human mesenchymal stem cells (MSCs). The concentration ranges selected for each drug and investigational agent were based upon clinically achievable concentrations if the clinical Cmax of the agent was known.
Compounds. The drugs and investigational agents: novobiocin (NSC847541), ART-558 (NSC835418), RP-6685 (NSC848927), peposertib (NSC802822), ceralasertib (NSC780249), elimusertib (NSC800525), camonsertib (NSC841442), AZD-1390 (NSC803789), olaparib (NSC753686), talazoparib (NSC767125), rucaparib (NSC756644), sotorasib (NSC818433), MRTX-1133 (NSC836407), SN-38 (NSC673596), topotecan (NSC609699), epotoside (NSC141540), doxorubicin (NSC123127), gemcitabine (NSC613327), 5-fluorouracil (NSC19893), paclitaxel (NSC125973), vemurafenib (NSC761431), MSA-2 (NSC828583), SN-011 (NSC837082), adavosertib (NSC754352), prexasertib (NSC758257), carboplatin (NSC241240) and oxaliplatin (NSC266046), were obtained from the National Cancer Institute (NCI) Developmental Therapeutics Program Chemical Repository (21). The FDA-approved anticancer drug set is available from the Developmental Therapeutics Program at https://dtp.cancer.gov/organization/dscb/obtaining/. […] The stock solutions were prepared in dimethyl sulfoxide (DMSO, Sigma-Aldrich, St. Louis, MO, cat. D2650), except for the platinum compounds which were prepared in saline (Quality Biological, Gaithersburg, MD, cat. 114-055-101), at 800-fold the tested concentration and stored at -70 degrees C prior to their use. All drugs and investigational agents were tested over a range starting from a high concentration at or near the clinical Cmax and decreasing in half-log increments. If the clinical Cmax for an agent had not been determined, the highest concentration tested was 10 microM, except for SN-38, which was tested at a high concentration of 1 microM.
Cell Culture. All cells were maintained in an incubator at 37 degrees C and 5% CO2 with 95% humidity. The PDC lines were cultured according to standard operating procedures established by the NCI PDMR (https://pdmr.cancer.gov). Table 3 of the manuscript, lists the cell lines along with the number of the three cell types plated to form the mct-spheroids and media for tumor cell growth. After thawing, all PDC lines, except 997537-175-T-J1-PDC and 415267-285-R-J2-PDC, were cultured in Matrigel-coated flasks prepared with a working solution of 1X Ham's F-12 nutrient mix, without supplementation (Thermo Fisher Scientific, cat. 11765054), 100 U/mL penicillin-streptomycin (Thermo Fisher Scientific, cat. 15140122), and 2.5% Matrigel (Corning Inc., Corning, NY, cat. 354248) for the first three passages. The two PDC lines 997537-175-T-J1-PDC and 415267-285-R-J2-PDC were cultured on uncoated flasks. The 857933-349-R-J2-PDC line was cultured in 6C/Colon 1B media containing advanced DMEM/F-12 (Thermo Fisher Scientific, cat. 12634028), 10 mM HEPES (Thermo Fisher Scientific, cat. 15630080), 1X GlutaMAX supplement (Thermo Fisher Scientific, cat. 35050061), 0.1 mg/mL primocin (InvivoGen, San Diego, CA, cat. ant-pm-2), 10% defined fetal bovine serum, heat inactivated (HyClone Laboratories Inc., Logan, UT, cat. SH30070.03HI), 50% L-WRN conditioned media (ATCC, cat. CRL-3276), 1.25 mM N-Acetyl-L-cysteine (Sigma-Aldrich, cat. A9165), 10 mM nicotinamide (Sigma-Aldrich, cat. N0636), 1X B-27 supplement (Thermo Fisher Scientific, cat. 17504044), 1X N-2 supplement (Thermo Fisher Scientific, cat. […]
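Also: spheroids exposed to compounds for 7 days before viability readout.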
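For viability, T/C in this document: luminescence signal used as surrogate for viable cell content; 100% = DMSO vehicle control viability.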

Q: For O=c1[nH]cc(F)c(=O)[nH]1 + COC1C(OC(N)=O)C(O)C(Oc2ccc3c(O)c(NC(=O)c4ccc(O)c(CC=C(C)C)c4)c(=O)oc3c2C)OC1(C)C, which IC50 (second compound 0.0316 µM) is on record?
A: The IC50 was > 10 µM.

Q: And the IC50 (second compound 0.1 µM)?
A: Its IC50 is > 10 µM.

Q: What about the IC50 (second compound 0.316 µM) of the same compound?
A: The IC50 was > 10 µM.

Q: What about the IC50 (second compound 1 µM) of the same compound?
A: Its IC50 is > 10 µM.

Q: What about the IC50 (second compound 3.16 µM) of the same compound?
A: The IC50 was > 10 µM.

Q: And the IC50 (second compound 10 µM)?
A: The IC50 was > 10 µM.

Q: And the viability, T/C (second compound 0.0316 µM, first compound 0.0316 µM)?
A: The viability, T/C was 100%.

Q: And the viability, T/C (second compound 0.0316 µM, first compound 0.1 µM)?
A: The viability, T/C was 92.8%.

Q: And the viability, T/C (second compound 0.0316 µM, first compound 0.316 µM)?
A: Its viability, T/C is 90.8%.

Q: What about the viability, T/C (second compound 0.0316 µM, first compound 1 µM) of the same compound?
A: The viability, T/C was 110%.

Q: What about the viability, T/C (second compound 0.0316 µM, first compound 3.16 µM) of the same compound?
A: Its viability, T/C is 87.9%.

Q: What about the viability, T/C (second compound 0.0316 µM, first compound 10 µM) of the same compound?
A: Its viability, T/C is 96.8%.

Q: And the viability, T/C (second compound 0.1 µM, first compound 0.0316 µM)?
A: The viability, T/C was 105%.

Q: What about the viability, T/C (second compound 0.1 µM, first compound 0.1 µM) of the same compound?
A: The viability, T/C was 103%.

Q: And the viability, T/C (second compound 0.1 µM, first compound 0.316 µM)?
A: Its viability, T/C is 85.2%.

Q: And the viability, T/C (second compound 0.1 µM, first compound 1 µM)?
A: Its viability, T/C is 95.4%.

Q: What about the viability, T/C (second compound 0.1 µM, first compound 3.16 µM) of the same compound?
A: The viability, T/C was 89.2%.

Q: And the viability, T/C (second compound 0.1 µM, first compound 10 µM)?
A: Its viability, T/C is 89.1%.

Q: And the viability, T/C (second compound 0.316 µM, first compound 0.0316 µM)?
A: Its viability, T/C is 101%.

Q: And the viability, T/C (second compound 0.316 µM, first compound 0.1 µM)?
A: The viability, T/C was 90%.

Q: What about the viability, T/C (second compound 0.316 µM, first compound 0.316 µM) of the same compound?
A: The viability, T/C was 87.1%.

Q: What about the viability, T/C (second compound 0.316 µM, first compound 1 µM) of the same compound?
A: The viability, T/C was 87.4%.

Q: And the viability, T/C (second compound 0.316 µM, first compound 3.16 µM)?
A: The viability, T/C was 109%.

Q: And the viability, T/C (second compound 0.316 µM, first compound 10 µM)?
A: Its viability, T/C is 91.3%.

Q: And the viability, T/C (second compound 1 µM, first compound 0.0316 µM)?
A: The viability, T/C was 88.9%.

Q: What about the viability, T/C (second compound 1 µM, first compound 0.1 µM) of the same compound?
A: The viability, T/C was 89.8%.

Q: And the viability, T/C (second compound 1 µM, first compound 0.316 µM)?
A: Its viability, T/C is 86.2%.

Q: What about the viability, T/C (second compound 1 µM, first compound 1 µM) of the same compound?
A: Its viability, T/C is 87.7%.

Q: And the viability, T/C (second compound 1 µM, first compound 3.16 µM)?
A: The viability, T/C was 100%.

Q: And the viability, T/C (second compound 1 µM, first compound 10 µM)?
A: Its viability, T/C is 88.5%.

Q: And the viability, T/C (second compound 3.16 µM, first compound 0.0316 µM)?
A: The viability, T/C was 95%.

Q: And the viability, T/C (second compound 3.16 µM, first compound 0.1 µM)?
A: Its viability, T/C is 95.5%.

Q: And the viability, T/C (second compound 3.16 µM, first compound 0.316 µM)?
A: Its viability, T/C is 90.2%.

Q: And the viability, T/C (second compound 3.16 µM, first compound 1 µM)?
A: The viability, T/C was 92.3%.

Q: What about the viability, T/C (second compound 3.16 µM, first compound 3.16 µM) of the same compound?
A: Its viability, T/C is 101%.

Q: What about the viability, T/C (second compound 3.16 µM, first compound 10 µM) of the same compound?
A: The viability, T/C was 91.3%.

Q: What about the viability, T/C (second compound 10 µM, first compound 0.0316 µM) of the same compound?
A: The viability, T/C was 91.3%.

Q: What about the viability, T/C (second compound 10 µM, first compound 0.1 µM) of the same compound?
A: The viability, T/C was 91.3%.

Q: And the viability, T/C (second compound 10 µM, first compound 0.316 µM)?
A: The viability, T/C was 92.5%.

Q: And the viability, T/C (second compound 10 µM, first compound 1 µM)?
A: The viability, T/C was 96.3%.

Q: What about the viability, T/C (second compound 10 µM, first compound 3.16 µM) of the same compound?
A: Its viability, T/C is 93.1%.

Q: What about the viability, T/C (second compound 10 µM, first compound 10 µM) of the same compound?
A: Its viability, T/C is 89.9%.
